Laboratory results taken from ChEMBL document CHEMBL1201862, “PubChem BioAssay data set” (2004).
The source made the active and inactive calls.

Assays:
Assay type in all cases: functional
[1] = NIH-3T3 fibroblast cytotoxicity, dose response, cytotoxicity control, cell-based, fluorescence, Alamar Blue, secondary assay (AID 2327);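 also: NIH-3T3 mouse fibroblasts cultured with fluconazole at 8 µg/mL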
[2] = target: T1, Sentrin-specific protease 6 (Homo sapiens, UniProt Q9GZR1);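 also: Luminescence-based dose-response confirmatory assay of SENP6 inhibition, following up an ultra-high-throughput screen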
T1 sequence (Q9GZR1 whole entry): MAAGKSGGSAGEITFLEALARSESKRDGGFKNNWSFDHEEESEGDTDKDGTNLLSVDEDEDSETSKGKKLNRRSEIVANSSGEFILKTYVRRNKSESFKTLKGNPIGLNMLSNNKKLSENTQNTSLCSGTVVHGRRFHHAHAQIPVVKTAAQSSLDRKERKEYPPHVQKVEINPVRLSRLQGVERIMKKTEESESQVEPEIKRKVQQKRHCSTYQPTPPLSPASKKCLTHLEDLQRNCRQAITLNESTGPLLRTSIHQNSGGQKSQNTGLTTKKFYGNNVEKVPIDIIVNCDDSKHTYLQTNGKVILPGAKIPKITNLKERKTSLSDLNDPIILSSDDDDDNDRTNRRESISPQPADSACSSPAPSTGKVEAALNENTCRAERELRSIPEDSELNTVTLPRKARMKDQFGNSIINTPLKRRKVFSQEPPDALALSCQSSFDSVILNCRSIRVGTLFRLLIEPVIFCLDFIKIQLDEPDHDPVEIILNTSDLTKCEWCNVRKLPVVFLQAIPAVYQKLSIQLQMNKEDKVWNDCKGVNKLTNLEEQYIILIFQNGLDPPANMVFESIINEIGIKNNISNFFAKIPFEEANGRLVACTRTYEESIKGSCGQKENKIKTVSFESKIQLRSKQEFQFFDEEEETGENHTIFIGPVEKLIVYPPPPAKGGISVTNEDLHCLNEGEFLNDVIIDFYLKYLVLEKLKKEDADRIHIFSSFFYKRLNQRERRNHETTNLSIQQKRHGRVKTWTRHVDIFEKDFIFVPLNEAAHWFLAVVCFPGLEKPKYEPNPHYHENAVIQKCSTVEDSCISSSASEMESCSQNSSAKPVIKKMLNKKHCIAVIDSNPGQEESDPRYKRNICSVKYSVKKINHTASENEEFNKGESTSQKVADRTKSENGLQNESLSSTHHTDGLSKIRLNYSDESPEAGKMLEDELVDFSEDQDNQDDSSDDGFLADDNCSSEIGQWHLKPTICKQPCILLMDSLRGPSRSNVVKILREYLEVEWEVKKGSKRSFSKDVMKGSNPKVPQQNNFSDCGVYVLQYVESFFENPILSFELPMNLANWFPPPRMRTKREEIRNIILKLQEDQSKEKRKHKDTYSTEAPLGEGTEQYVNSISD

[3] = target: cAMP-dependent protein kinase catalytic subunit PRKX (Homo sapiens, UniProt P51817)
[4] = target: Mitogen-activated protein kinase 8 (Homo sapiens, UniProt P45983);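 also: value comes from one member of a kinome-wide kinase profiling panel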
[5] = target: High affinity nerve growth factor receptor (Homo sapiens, UniProt P04629);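 also: NTRK1 tested as one member of a kinome-wide profiling panel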
Sequence of High affinity nerve growth factor receptor (P04629 whole entry): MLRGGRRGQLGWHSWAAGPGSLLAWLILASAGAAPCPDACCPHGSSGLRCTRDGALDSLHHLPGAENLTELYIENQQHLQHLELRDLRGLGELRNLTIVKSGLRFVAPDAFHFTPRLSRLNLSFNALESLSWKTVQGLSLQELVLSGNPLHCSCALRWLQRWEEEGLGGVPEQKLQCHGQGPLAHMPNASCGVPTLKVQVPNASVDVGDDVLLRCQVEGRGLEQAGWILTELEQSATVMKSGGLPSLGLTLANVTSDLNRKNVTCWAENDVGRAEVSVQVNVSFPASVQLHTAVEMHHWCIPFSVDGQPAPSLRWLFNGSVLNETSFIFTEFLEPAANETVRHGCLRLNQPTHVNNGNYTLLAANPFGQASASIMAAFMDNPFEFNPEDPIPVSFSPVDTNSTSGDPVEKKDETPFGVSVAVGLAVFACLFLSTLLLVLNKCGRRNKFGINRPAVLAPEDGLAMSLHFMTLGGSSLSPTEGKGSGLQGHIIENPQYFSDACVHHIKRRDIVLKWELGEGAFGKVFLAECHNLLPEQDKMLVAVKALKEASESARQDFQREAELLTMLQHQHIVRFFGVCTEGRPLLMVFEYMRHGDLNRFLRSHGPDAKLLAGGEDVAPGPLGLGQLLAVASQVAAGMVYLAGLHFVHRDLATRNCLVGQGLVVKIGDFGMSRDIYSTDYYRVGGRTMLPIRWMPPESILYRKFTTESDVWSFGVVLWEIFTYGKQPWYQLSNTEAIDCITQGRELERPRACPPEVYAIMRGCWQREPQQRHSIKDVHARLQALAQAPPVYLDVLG

[6] = target: BDNF/NT-3 growth factors receptor (Homo sapiens, UniProt Q16620);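 also: NTRK2 measured as one member of a broad kinome-wide kinase profiling panel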
Sequence of BDNF/NT-3 growth factors receptor (Q16620 whole entry): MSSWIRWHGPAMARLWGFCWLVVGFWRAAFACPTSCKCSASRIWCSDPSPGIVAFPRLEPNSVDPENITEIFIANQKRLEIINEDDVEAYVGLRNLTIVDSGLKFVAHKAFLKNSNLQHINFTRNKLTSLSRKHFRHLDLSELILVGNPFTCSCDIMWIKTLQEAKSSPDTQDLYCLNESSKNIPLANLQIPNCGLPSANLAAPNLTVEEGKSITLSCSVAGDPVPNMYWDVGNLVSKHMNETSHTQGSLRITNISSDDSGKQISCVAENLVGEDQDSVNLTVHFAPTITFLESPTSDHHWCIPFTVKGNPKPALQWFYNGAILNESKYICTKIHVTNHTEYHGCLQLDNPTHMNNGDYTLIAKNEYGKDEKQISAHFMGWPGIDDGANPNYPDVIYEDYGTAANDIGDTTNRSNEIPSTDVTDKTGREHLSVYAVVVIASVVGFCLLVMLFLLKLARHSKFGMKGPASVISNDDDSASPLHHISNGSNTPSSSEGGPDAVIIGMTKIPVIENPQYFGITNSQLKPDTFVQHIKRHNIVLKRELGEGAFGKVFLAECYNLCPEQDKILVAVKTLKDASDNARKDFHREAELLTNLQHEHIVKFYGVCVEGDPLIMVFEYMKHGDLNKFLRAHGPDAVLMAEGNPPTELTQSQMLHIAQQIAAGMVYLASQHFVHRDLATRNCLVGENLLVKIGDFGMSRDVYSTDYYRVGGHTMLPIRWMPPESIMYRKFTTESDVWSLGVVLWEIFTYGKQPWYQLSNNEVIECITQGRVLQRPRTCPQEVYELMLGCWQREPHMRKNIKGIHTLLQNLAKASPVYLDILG

[7] = target: Cyclin-dependent kinase 8 (Homo sapiens, UniProt P49336); test: Navigating the Kinome. Panel member name: CDK8
[8] = target: Cyclin-dependent kinase 9 (Homo sapiens, UniProt P50750);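 also: value from the CDK9 entry of a kinome-spanning kinase panel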
[9] = target: Ribosomal protein S6 kinase alpha-3 (Homo sapiens, UniProt P51812);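 also: measured within a kinome-wide profiling panel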
[10] = target: Dual specificity protein kinase CLK2 (Homo sapiens, UniProt P49760)
[11] = target: Vascular endothelial growth factor receptor 1 (Homo sapiens, UniProt P17948);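 also: measured within a kinome-wide profiling panel, FLT1 as the panel member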
Sequence of Vascular endothelial growth factor receptor 1 (P17948 whole entry): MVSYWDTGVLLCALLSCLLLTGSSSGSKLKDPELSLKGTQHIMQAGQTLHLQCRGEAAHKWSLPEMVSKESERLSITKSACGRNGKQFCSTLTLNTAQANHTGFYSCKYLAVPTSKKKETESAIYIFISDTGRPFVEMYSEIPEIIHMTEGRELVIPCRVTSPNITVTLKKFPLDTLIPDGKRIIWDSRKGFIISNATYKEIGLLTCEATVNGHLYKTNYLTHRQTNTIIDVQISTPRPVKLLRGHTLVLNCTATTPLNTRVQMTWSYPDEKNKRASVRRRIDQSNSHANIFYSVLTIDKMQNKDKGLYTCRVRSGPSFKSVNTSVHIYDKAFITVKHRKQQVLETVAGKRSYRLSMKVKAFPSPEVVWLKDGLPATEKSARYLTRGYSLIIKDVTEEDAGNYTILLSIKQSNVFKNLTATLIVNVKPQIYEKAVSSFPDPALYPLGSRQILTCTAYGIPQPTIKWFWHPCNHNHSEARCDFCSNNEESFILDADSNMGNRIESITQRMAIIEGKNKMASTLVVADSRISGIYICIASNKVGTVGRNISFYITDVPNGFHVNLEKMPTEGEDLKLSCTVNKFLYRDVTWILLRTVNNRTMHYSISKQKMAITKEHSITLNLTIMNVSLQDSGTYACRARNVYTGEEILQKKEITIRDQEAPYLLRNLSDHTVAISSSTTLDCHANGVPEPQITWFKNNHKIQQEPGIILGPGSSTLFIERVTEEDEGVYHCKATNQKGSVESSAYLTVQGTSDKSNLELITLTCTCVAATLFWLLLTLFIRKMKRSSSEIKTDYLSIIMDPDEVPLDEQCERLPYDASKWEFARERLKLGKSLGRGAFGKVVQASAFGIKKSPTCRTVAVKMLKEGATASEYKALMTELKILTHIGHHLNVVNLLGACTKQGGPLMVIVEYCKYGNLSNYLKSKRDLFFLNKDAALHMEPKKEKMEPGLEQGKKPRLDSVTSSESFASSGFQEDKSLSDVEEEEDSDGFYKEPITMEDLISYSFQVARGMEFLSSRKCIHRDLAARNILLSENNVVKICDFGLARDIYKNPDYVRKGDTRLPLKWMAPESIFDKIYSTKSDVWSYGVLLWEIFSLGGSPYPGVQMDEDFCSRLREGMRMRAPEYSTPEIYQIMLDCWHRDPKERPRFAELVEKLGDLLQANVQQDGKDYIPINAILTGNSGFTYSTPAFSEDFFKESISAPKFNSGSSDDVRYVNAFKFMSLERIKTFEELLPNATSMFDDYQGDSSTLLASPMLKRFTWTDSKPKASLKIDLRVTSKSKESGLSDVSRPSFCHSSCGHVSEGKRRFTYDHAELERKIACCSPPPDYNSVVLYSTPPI

[12] = target: G protein-coupled receptor kinase 5 (Homo sapiens, UniProt P34947); test: Navigating the Kinome. Panel member name: GPRK5
[13] = target: Mitogen-activated protein kinase 9 (Homo sapiens, UniProt P45984);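 also: value from a kinome panel profiling assay, MAPK9 panel entry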
Sequence of Mitogen-activated protein kinase 9 (P45984 whole entry): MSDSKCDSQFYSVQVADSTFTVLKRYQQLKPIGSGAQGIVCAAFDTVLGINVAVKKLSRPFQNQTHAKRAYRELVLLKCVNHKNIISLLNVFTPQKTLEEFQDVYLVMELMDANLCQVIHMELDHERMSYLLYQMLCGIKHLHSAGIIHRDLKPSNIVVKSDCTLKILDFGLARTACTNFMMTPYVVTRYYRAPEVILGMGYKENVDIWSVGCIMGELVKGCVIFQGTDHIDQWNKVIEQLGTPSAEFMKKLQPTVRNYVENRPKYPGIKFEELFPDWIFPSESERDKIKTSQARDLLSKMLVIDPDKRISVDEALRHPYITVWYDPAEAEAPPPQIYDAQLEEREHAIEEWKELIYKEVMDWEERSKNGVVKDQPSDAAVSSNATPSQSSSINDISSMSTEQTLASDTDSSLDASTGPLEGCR

[14] = target: Mitogen-activated protein kinase kinase kinase kinase 4 (Homo sapiens, UniProt O95819)
[15] = target: Receptor-type tyrosine-protein kinase FLT3 (Homo sapiens, UniProt P36888);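 also: FLT3 was tested as one member of a kinome-wide kinase panel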
Sequence of Receptor-type tyrosine-protein kinase FLT3 (P36888 whole entry): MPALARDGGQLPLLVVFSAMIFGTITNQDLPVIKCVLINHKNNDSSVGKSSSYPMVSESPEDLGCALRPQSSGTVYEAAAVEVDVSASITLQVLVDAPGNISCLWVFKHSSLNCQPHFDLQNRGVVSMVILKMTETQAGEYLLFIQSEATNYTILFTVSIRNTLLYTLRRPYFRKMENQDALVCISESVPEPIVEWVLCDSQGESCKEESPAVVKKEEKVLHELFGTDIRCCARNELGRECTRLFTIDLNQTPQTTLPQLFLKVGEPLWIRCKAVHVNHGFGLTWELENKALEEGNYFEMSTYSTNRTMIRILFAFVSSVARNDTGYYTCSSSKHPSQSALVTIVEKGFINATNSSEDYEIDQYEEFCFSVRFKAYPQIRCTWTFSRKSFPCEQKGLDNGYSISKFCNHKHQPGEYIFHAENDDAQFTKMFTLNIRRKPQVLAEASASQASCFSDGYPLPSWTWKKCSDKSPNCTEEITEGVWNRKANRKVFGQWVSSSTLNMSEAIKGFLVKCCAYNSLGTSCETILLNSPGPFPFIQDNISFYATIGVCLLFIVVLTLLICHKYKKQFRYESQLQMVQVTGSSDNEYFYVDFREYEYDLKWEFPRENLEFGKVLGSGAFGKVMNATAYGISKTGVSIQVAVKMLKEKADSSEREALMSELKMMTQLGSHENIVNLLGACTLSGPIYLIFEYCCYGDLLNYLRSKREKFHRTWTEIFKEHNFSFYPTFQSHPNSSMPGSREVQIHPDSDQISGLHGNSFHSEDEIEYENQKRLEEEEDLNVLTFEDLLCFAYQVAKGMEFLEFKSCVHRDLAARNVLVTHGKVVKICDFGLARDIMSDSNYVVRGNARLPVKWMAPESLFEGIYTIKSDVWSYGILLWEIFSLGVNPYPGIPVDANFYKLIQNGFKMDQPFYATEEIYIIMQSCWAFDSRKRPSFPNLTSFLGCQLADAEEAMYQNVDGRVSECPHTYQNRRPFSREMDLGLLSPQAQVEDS

[16] = target: cAMP-dependent protein kinase catalytic subunit alpha (Homo sapiens, UniProt P17612)
[17] = target: Tyrosine-protein kinase Fyn (Homo sapiens, UniProt P06241)
Sequence of Tyrosine-protein kinase Fyn (P06241 whole entry, canonical isoform): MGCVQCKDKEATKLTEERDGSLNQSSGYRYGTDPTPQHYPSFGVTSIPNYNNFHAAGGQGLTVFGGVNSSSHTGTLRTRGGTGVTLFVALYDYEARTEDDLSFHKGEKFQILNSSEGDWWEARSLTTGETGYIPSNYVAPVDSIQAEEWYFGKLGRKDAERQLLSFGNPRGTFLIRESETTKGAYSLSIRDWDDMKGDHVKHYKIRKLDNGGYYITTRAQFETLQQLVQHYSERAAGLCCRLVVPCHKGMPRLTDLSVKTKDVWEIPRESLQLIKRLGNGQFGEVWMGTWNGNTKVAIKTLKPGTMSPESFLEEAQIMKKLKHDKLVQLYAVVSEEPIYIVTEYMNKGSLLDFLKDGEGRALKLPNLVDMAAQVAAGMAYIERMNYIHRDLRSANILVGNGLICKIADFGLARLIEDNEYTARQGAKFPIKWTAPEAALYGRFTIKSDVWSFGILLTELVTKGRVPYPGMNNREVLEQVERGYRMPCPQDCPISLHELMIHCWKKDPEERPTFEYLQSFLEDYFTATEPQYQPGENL

[18] = target: Casein kinase I isoform alpha (Homo sapiens, UniProt P48729)

Row | SMILES | EC50 [1] | IC50 [2] | Ki [3] | Ki [4] | Ki [5] | Ki [6] | Ki [7] | Ki [8] | Ki [9] | Ki [10] | Ki [11] | Ki [12] | Ki [13] | Ki [14] | Ki [15] | Ki [16] | Ki [17] | Ki [18]
1 | CNC[C@H](Cc1ccccc1)NC[C@@H](Cc1cccc2ccccc12)NCCc1ccc(C)cc1 | > 160 µM (inconclusive) |  |  |  |  |  |  |  |  |  |  |  |  |  |  |  |  | 
2 | Nc1nnc2c(n1)CCCC2 |  | 7.37 µM (active) |  |  |  |  |  |  |  |  |  |  |  |  |  |  |  | 
3 | O=C(N/N=C/c1c(O)ccc2ccccc12)c1[nH]ncc1Br |  | > 100 µM (inactive) |  |  |  |  |  |  |  |  |  |  |  |  |  |  |  | 
4 | Nc1c(-c2ccc(NC(=O)Nc3cccc(C(F)(F)F)c3)cc2)cnc2c(-c3ccc4c(c3)OCO4)cnn12 |  |  | > 3.16 µM (inactive) | > 5.01 µM (inactive) | 0.1 µM (active) | 0.0126 µM (active) | 0.0251 µM (active) | > 1.58 µM (inactive) | > 3.98 µM (inactive) | > 3.98 µM (inactive) | 0.251 µM (active) | > 3.98 µM (inactive) | > 3.98 µM (inactive) | > 5.01 µM (inactive) | 0.0501 µM (active) | > 1.26 µM (inactive) | 0.316 µM (active) | > 3.98 µM (inactive)
5 | O=C(Nc1cc(-c2c[nH]c3ncccc23)cc(Cl)n1)c1ccccc1 |  |  | > 3.16 µM (inactive) | > 5.01 µM (inactive) | > 3.16 µM (inactive) | > 3.98 µM (inactive) | 0.0794 µM (active) | > 1.58 µM (inactive) | > 3.98 µM (inactive) | > 3.16 µM (inactive) | > 3.98 µM (inactive) | > 3.98 µM (inactive) | > 3.98 µM (inactive) | 2.51 µM (active) | > 2.51 µM (inactive) | > 2.51 µM (inactive) | > 6.31 µM (inactive) | > 2.51 µM (inactive)
6 | CCN1C(=Cc2sc3ccccc3[n+]2C)C=Cc2cccc(C)c21 | 15.5 µM (inconclusive) |  |  |  |  |  |  |  |  |  |  |  |  |  |  |  |  | 
